Experimental findings from patent publication US20100119483A1, “PEPTIDE VIRAL ENTRY INHIBITORS” (Schering Corporation, priority 2004, published 2010) are described below.

Where “and” joins values, the source holds several entries; their conditions need not be identical. Equal values may be shown once.

The assay deals with HCV pseudoparticles. As to the kind of experiment: HCV pseudoparticle (HCVpp) entry assay in Huh7 hepatoma cells, luciferase readout. The format is cell-based, hepatitis C virus. As to conditions: for % of control at ~30 uM: percentage of hepatitis C virus cellular entry at 30 μM peptide vs uninhibited control. Here is the method:
HCV pseudotype particle generation. Single cycle HCV pseudoparticles are composed of a replication-defective HIV genome and HCV envelope proteins. These pseudoparticles were made by transfecting 293T cells with 5 ug of each pNL43E-R-luc (Chen et al., J. Virol. 68(2):654-60 (1994)) and plasmid expressing HCV envelope proteins pCMV/E1-2 with profection transfection kit from Promega (Madison, Wis.). The medium was refreshed 12-24 hours after transfection and supernatant was collected 48 hours after transfection. The supernatant from a transfection of only pNL43E-R-luc was used each time as a control for non specific entry events.
Infection of hepatoma cell lines with HCV pseudotype particles and screen for inhibitory peptides. The hepatoma cells, Huh7, was seeded at 8000 cells in 90 ul medium in 96-well plate. In the case of the inhibitor screen, the inhibitor was incubated with cells for one hour at 37° C. and then 50 ul viral supernatant was added to the cells 24 hours after seeding. The viral stock was pre-tittered and diluted to yield approximately 10,000 to 20,000 RLU. The cells were incubated at 37° C. with 5% CO2 for additional 72 hours and were harvested for luciferase assay. Peptide stocks were prepared in 100% DMSO at 10 mg/ml and were first screened at 100 ug/ml and then a dose responsive curve was generated with 10 points 3-fold titration starting from 100 ug/ml.
The peptide of SEQ ID NO: 77 was first serial diluted by the factor of 3 in 100% DMSO from 100 ug/ml and then transferred to the assay plates at 100-fold dilution. The peptide was first incubated with cells and HCVpp (A) or HIVpp (B), respectively, for 30 minutes at […] in this experiment. Then, the medium containing the peptide was removed from the cells and virus with peptide was added to the cells. Cells were incubated for 72 hours and then were harvested for luciferase assay. Two separate trials were performed.
In addition, the peptide of SEQ ID NO: 77 was mutated at several positions and assayed in the HCV entry assay discussed above. […] The assays were performed essentially as described above.

Where [1] appears, read: 0.1 nM of peptide (printed for three rows), two values per peptide and row.
Setting [2] is: 0.3 nM of peptide, two values per peptide.
Setting [3] is: 1 nM of peptide, two values per peptide.
Setting [4] is: 3 nM of peptide, two values per peptide.
The mark [5] stands for this setting: 10 nM of peptide, two values per peptide.
The mark [6] stands for this setting: 30 nM of peptide, two values per peptide.
The mark [7] stands for this setting: 100 nM of peptide, two values per peptide.
The mark [8] stands for this setting: 300 nM of peptide, two values per peptide.
Setting [9] is: 10000 nM of peptide, two values per peptide.
[10] abbreviates: 30000 nM of peptide, two values per peptide.

On to “A-A-K-W-E-Y-V-L-L-L-F-L-L (AAKWEYVLLLFLL; HCV peptide) [SEQ ID NO: 87, Ala-scan]”, for which the “% of control at ~30 uM” value came out at 14%. Besides, the “% control (HCVpp entry), alanine scanning” value (“% control … alanine scanning” below) under setting [1] was 90 % control and 108 % control and 113 % control and 93 % control and 104 % control. Besides, under setting [2], the “% control … alanine scanning” value was 84 % control and 75 % control. For the same substance, the “% control … alanine scanning” value under setting [3] is 110 % control and 93 % control. Besides, the “% control … alanine scanning” value under setting [4] was 92 % control and 68 % control. Also, the “% control … alanine scanning” value under setting [5] is 45 % control and 57 % control. Moreover, under setting [6], the “% control … alanine scanning” value was 42 % control and 51 % control. Also, the “% control … alanine scanning” value under setting [7] was 19 % control and 15 % control. Also, under setting [8], the “% control … alanine scanning” value is 16 % control and 13 % control. In addition, the “% control … alanine scanning” value under setting [9] is 15 % control and 23 % control. Under setting [10], the “% control … alanine scanning” value was 11 % control and 6 % control.
With “A-G-K-W-E-Y-V-L-L-L-F-L-L (AGKWEYVLLLFLL; HCV peptide) [SEQ ID NO: 83, Gly-scan]”, the “% of control at ~30 uM” value turned out to be 9%. In addition, the “% control (HCVpp entry), glycine scanning” value (“% control … glycine scanning” below) (0.00003 uM of peptide, two values per peptide and row) is 98 % control and 80 % control and 128 % control and 94 % control. Besides, where the note is “0.0001 uM of peptide, two values per peptide”, the “% control … glycine scanning” value is 75 % control and 94 % control. Further, the “% control … glycine scanning” value (0.0003 uM of peptide, two values per peptide) is 94 % control and 83 % control. Besides, where the note is “0.001 uM of peptide, two values per peptide”, the “% control … glycine scanning” value was 70 % control and 67 % control. Moreover, the “% control … glycine scanning” value (0.003 uM of peptide, two values per peptide) was 51 % control and 66 % control. Moreover, the “% control … glycine scanning” value (0.01 uM of peptide, two values per peptide) is 76 % control and 56 % control. Besides, the “% control … glycine scanning” value (0.03 uM of peptide, two values per peptide) is 43 % control and 62 % control. Also, the “% control … glycine scanning” value (30 uM of peptide, two values per peptide) was 18 % control and 15 % control.
Regarding “A-I-A-W-E-Y-V-L-L-L-F-L-L (AIAWEYVLLLFLL; HCV peptide) [SEQ ID NO: 88, Ala-scan]”, the “% of control at ~30 uM” value is listed as 9%. The “% control … alanine scanning” value under setting [1] is 96 % control and 85 % control and 87 % control and 108 % control and 109 % control. Besides, the “% control … alanine scanning” value under setting [2] was 91 % control and 101 % control. Moreover, under setting [3], the “% control … alanine scanning” value was 100 % control and 69 % control. Besides, the “% control … alanine scanning” value under setting [4] was 81 % control and 93 % control. The “% control … alanine scanning” value under setting [5] was 56 % control and 60 % control. In addition, the “% control … alanine scanning” value under setting [6] is 53 % control and 66 % control. Moreover, the “% control … alanine scanning” value under setting [7] was 37 % control and 57 % control. Moreover, the “% control … alanine scanning” value under setting [8] is 42 % control and 45 % control. Further, the “% control … alanine scanning” value under setting [9] was 27 % control and 32 % control.
For “A-I-K-A-E-Y-V-L-L-L-F-L-L (AIKAEYVLLLFLL; HCV peptide) [SEQ ID NO: 89, Ala-scan]”, the “% of control at ~30 uM” value is on record as 8%. Under setting [1], the “% control … alanine scanning” value is 76 % control and 84 % control and 95 % control and 104 % control and 105 % control and 96 % control. The “% control … alanine scanning” value under setting [2] is 64 % control and 71 % control. In addition, the “% control … alanine scanning” value under setting [3] is 96 % control and 85 % control. Besides, the “% control … alanine scanning” value under setting [4] is 76 % control and 63 % control. Under setting [5], the “% control … alanine scanning” value is 57 % control and 63 % control. Moreover, the “% control … alanine scanning” value under setting [6] is 71 % control and 66 % control. Also, the “% control … alanine scanning” value under setting [7] is 38 % control and 41 % control. Moreover, the “% control … alanine scanning” value under setting [8] is 27 % control and 24 % control. In addition, under setting [9], the “% control … alanine scanning” value is 17 % control and 24 % control.
Turning to “A-I-K-K-E-Y-V-L-L-L-F-L-L (AIKKEYVLLLFLL; HCV peptide) [SEQ ID NO: 128]”, the “% control (HCVpp entry), lysine scanning” value was 80 % control and 86 % control and 107 % control and 102 % control and 87 % control and 103 % control under setting [1]; 64 % control and 88 % control under setting [2]; 99 % control and 72 % control under setting [3]; 84 % control and 81 % control under setting [4]; 63 % control and 92 % control under setting [5]; 59 % control and 55 % control under setting [6]. Moreover, the “% control (HCVpp entry), lysine scanning” value is 52 % control and 46 % control under setting [7]; 22 % control and 28 % control under setting [8]; 7 % control and 4 % control under setting [9].
As to “A-I-K-P-E-Y-V-L-L-L-F-L-L (AIKPEYVLLLFLL; HCV peptide) [SEQ ID NO: 118]”, the “% control (HCVpp entry), proline scanning” value by setting is: under setting [1], 87 % control and 80 % control and 108 % control and 103 % control and 79 % control and 110 % control; under setting [2], 92 % control and 101 % control; under setting [3], 99 % control and 74 % control; under setting [4], 84 % control and 108 % control; under setting [5], 83 % control and 116 % control; under setting [6], 93 % control and 63 % control. Moreover, the “% control (HCVpp entry), proline scanning” value is 53 % control and 47 % control under setting [7]; 29 % control and 38 % control under setting [8]; 33 % control and 24 % control under setting [10].
As to “A-I-K-W-A-Y-V-L-L-L-F-L-L (AIKWAYVLLLFLL; HCV peptide) [SEQ ID NO: 90, Ala-scan]”, the “% of control at ~30 uM” value came to 13%. Further, the “% control … alanine scanning” value under setting [1] was 105 % control and 98 % control and 82 % control and 106 % control and 116 % control and 96 % control. In addition, the “% control … alanine scanning” value under setting [2] was 73 % control and 94 % control. For the same substance, the “% control … alanine scanning” value under setting [3] was 66 % control and 98 % control. Moreover, the “% control … alanine scanning” value under setting [4] was 106 % control and 81 % control. Further, the “% control … alanine scanning” value under setting [5] was 66 % control and 46 % control. In addition, the “% control … alanine scanning” value under setting [6] was 69 % control and 63 % control. Under setting [7], the “% control … alanine scanning” value was 51 % control and 43 % control. For the same substance, under setting [8], the “% control … alanine scanning” value stood at 55 % control.
With “A-I-K-W-E-A-V-L-L-L-F-L-L (AIKWEAVLLLFLL; HCV peptide) [SEQ ID NO: 91, Ala-scan]”, the “% of control at ~30 uM” value was determined as 16%. Also, under setting [1], the “% control … alanine scanning” value was 101 % control and 73 % control and 107 % control and 89 % control and 93 % control and 111 % control. In addition, the “% control … alanine scanning” value under setting [2] is 81 % control and 84 % control. Further, the “% control … alanine scanning” value under setting [3] was 120 % control and 102 % control. Also, under setting [4], the “% control … alanine scanning” value was 86 % control and 110 % control. In addition, the “% control … alanine scanning” value under setting [5] is 59 % control and 66 % control. In addition, the “% control … alanine scanning” value under setting [6] is 49 % control and 48 % control. Further, the “% control … alanine scanning” value under setting [7] was 35 % control and 32 % control. Moreover, under setting [8], the “% control … alanine scanning” value is 17 % control and 27 % control. The “% control … alanine scanning” value under setting [9] was 30 % control and 15 % control. Further, under setting [10], the “% control … alanine scanning” value is 12 % control and 18 % control.
Regarding “A-I-K-W-E-K-V-L-L-L-F-L-L (AIKWEKVLLLFLL; HCV peptide) [SEQ ID NO: 130]”, the “% control (HCVpp entry), lysine scanning” value is 122 % control and 84 % control and 106 % control and 96 % control and 105 % control and 93 % control under setting [1]; 103 % control and 100 % control under setting [2]; 114 % control and 89 % control under setting [3]; 95 % control and 81 % control under setting [4]; 90 % control and 102 % control under setting [5]; 74 % control and 75 % control under setting [6]. For the same substance, the “% control (HCVpp entry), lysine scanning” value under setting [8] was 33 % control and 19 % control.
